Counter-ions that a name gives are not always drawn. Marks after values point to notes of the source that are not given here.
Tests used:
[1] = background statement; result in words; cited from earlier work
[2] = system: arrhythmia induced by coronary artery ligation in rats; experiment: Arrhythmia induced by coronary artery ligation in rats; format: in vivo, Wistar rats; conditions: for Incidence rate of arrhythmia CA / Incidence rate of arrhythmia VF / Incidence rate of arrhythmia VT / Occurrence times CA / Occurrence times VF / Occurrence times VP / Occurrence times VT: rats, coronary artery ligation; for Occurrence times CA / Occurrence times VF / Occurrence times VP / Occurrence times VT: x±s
Description: Models of experimental arrhythmia induced by coronary artery ligation in rats were constructed. The inventive compound was administrated in a dose of 50, 100, 200 mg/kg, respectively. […] Each group wa administrated by gastric perfusion once. The occurrence times and the incidence rates of ventricular premature contraction (VP), ventricular tachycardia (VT), ventricular fibrillation […] and cardiac arrest (CA) after coronary artery ligation in rats were recorded.
The experimental data were analyzed with the statistic software SPSS 10.0, and represented as x±s. The intergroup comparison was analyzed by the intergroup difference comparison t test. The incidence rates were compared by χ^2 test.

[3] = system: ouabain-induced arrhythmia in guinea pigs; experiment: Ouabain-induced arrhythmia in guinea pigs; format: in vivo, EWG/B guinea pigs; conditions: for Dosages of ouabain CA / Dosages of ouabain VF / Dosages of ouabain VP / Dosages of ouabain VT: ouabain infused 5 μg/min, n=6, x±s; for Antagonistic action against the arrhythmia induced by ouabain in guinea pigs: 100 and 200 mg/kg intragastric, result in words
Description: (§1) Models of experimental arrhythmia induced by aconitine and ouabain in rats and guinea pigs were constructed. The inventive compound and the hydrochloride thereof were administrated with dosages of 100 and 200 mg/kg, respectively. The positive medicament group was administrated with 10 mg/kg of Propranolol, and the control group was administrated with 0.5% carboxymethylcellulose sodium. Each group was administrated by gastric perfusion once. The occurrence times of ventricular premature contraction (VP), ventricular tachycardia (VT), ventricular fibrillation (VF) and cardiac arrest (CA) after administration of aconitine in rats were recorded; and the dosages of ouabain were also observed when VP, VT, VF and CA appeared.
Thirty-six guinea pigs were divided into 6 groups randomly: a control group, a positive medicament (Propranolol) group, high- and low-dosage groups (200 and 100 mg/kg) of the inventive compound and the hydrochloride thereof, respectively, 6 animals per group. Fifty minutes after intragastric administration, the animals of each groups were anaesthetized by injecting 10% chloral hydrate intraperitoneally and fixed in a supine position. After the external jugular vein was separated, intubation was performed and a constant-speed micro-infusion apparatus was installed. Then a type II lead normal electrocardiogram was recorded. After that, ouabain was infused via the external jugular vein at a constant rate of 5 μg/min, and the change of the electrocardiogram was observed. The dosages of ouabain when VP, VT, VF and CA occurred after administration of ouabain in the guinea pigs were recorded.
(§2) The experimental data were analyzed with the statistic software SPSS 10.0, and represented as x±s. The comparison among groups was analyzed by the intergroup comparison difference t test.

[4] = system: aconitine-induced arrhythmia in rats; experiment: Aconitine-induced arrhythmia in rats; format: in vivo, Wistar rats; conditions: for Occurrence time CA / Occurrence time VF / Occurrence time VP / Occurrence time VT: 50 min before aconitine 20 μg/kg i.v., n=10, x±s; for Antagonistic action against the arrhythmia induced by aconitine in rats: 100 and 200 mg/kg intragastric, result in words
Description: as §1
Sixty Wistar rats were divided into 6 groups randomly: a control group, a positive medicament (Propranolol) group, high- and low-dosage groups (200 and 100 mg/kg) of the inventive compound and the hydrochloride thereof, respectively, 10 animals per group. Fifty minutes after intragastric administration, the animals of each groups were anaesthetized by injecting 10% chloral hydrate intraperitoneally and fixed in a supine position. A type II lead normal electrocardiogram was then recorded. After that, 20 μg/kg of aconitine was injected via sublingual vein, and the change of the electrocardiogram was observed. The occurrence times of ventricular premature contraction (VP), ventricular tachycardia (VT), ventricular fibrillation (VF) and cardiac arrest (CA) after administration of aconitine in the rats were recorded.
as §2

cholinesterase = conditions: Chinese Patent No. ZL 03104541.3; result in words; cited from earlier work
[5] = 50 mg/kg by gastric perfusion once
[6] = 100 mg/kg by gastric perfusion once
[7] = 200 mg/kg by gastric perfusion once
[8] = 100 mg/kg intragastric, 100 mg/kg
[9] = 200 mg/kg intragastric, 200 mg/kg

## Nc1c2c(nc3ccccc13)CCCC2 [Tacrine, 9-amino-1,2,3,4-tetrahydroacridine]
[1]
  Hepatotoxicity: has a hepatotoxicity

## O=C(Cc1ccccc1)Nc1c2c(nc3c1CCCC3)CCCC2 (as salt: hydrochloride) [Hydrochloride of the inventive compound, hydrochloride of 1,2,3,4,5,6,7,8-octohydro-9-phenylacetamidoacridine]
other
  melting point: 231 to 234 °C

## O=C(Cc1ccccc1)Nc1c2c(nc3c1CCCC3)CCCC2 [Inventive compound, 1,2,3,4,5,6,7,8-octohydro-9-phenylacetamidoacridine]
[2]; rats, 50, 100, 200 mg/kg by gastric perfusion, result in words
  Antagonistic action against the experimental arrhythmia induced by coronary artery ligation in rats: significant antagonistic action
[2]; [5]
  Incidence rate of arrhythmia CA: 21.4%
  Incidence rate of arrhythmia VF: 35.7%
  Incidence rate of arrhythmia VT: 42.8%
  Occurrence times CA: 1141.8 ± 161.9 s
  Occurrence times VF: 930.5 ± 379.4 s
  Occurrence times VP: 82.3 ± 79.0 s
  Occurrence times VT: 773.8 ± 344.3 s
[2]; [6]
  Incidence rate of arrhythmia CA: 14.3* %
  Incidence rate of arrhythmia VF: 14.3* %
  Incidence rate of arrhythmia VT: 28.6* %
  Occurrence times CA: 1163.4 ± 124.6 s
  Occurrence times VF: 1148.3 ± 193.6 s
  Occurrence times VP: 90.1 ± 39.7 s
  Occurrence times VT: 920.5 ± 270.6 s
[2]; [7]
  Incidence rate of arrhythmia CA: 12.5* %
  Incidence rate of arrhythmia VF: 12.5* %
  Incidence rate of arrhythmia VT: 12.5** %
  Occurrence times CA: 1176.4 ± 729.2 s
  Occurrence times VF: 1115.0 ± 138.8 s
  Occurrence times VP: 107.3 ± 67.9 s
  Occurrence times VT: 1043.2 ± 247.1 s
[3]; [8]
  Dosages of ouabain CA: 283.0 ± 46.5 µg/kg
  Dosages of ouabain VF: 230.5 ± 46.4 µg/kg
  Dosages of ouabain VP: 174.9 ± 41.7 µg/kg
  Dosages of ouabain VT: 184.1 ± 28.8 µg/kg
[3]; [9]
  Dosages of ouabain CA: 371.3 ± 69.6 µg/kg
  Dosages of ouabain VF: 294.5 ± 51.9 µg/kg
  Dosages of ouabain VP: 185.5 ± 24.8 µg/kg
  Dosages of ouabain VT: 228.3 ± 36.6 µg/kg
[3]
  Antagonistic action against the arrhythmia induced by ouabain in guinea pigs: significant antagonistic actions
[4]; [8]
  Occurrence time CA: 910.1 ± 276.5 s
  Occurrence time VF: 621.6 ± 203.7 s
  Occurrence time VP: 16.9 ± 8.3 s
  Occurrence time VT: 82.7 ± 21.0 s
[4]; [9]
  Occurrence time CA: 905.7 ± 170.3 s
  Occurrence time VF: 650.4 ± 193.3 s
  Occurrence time VP: 20.7 ± 6.9 s
  Occurrence time VT: 95.6 ± 20.6 s
[4]
  Antagonistic action against the arrhythmia induced by aconitine in rats: significant antagonistic actions

## O=C(Cc1ccccc1)Nc1c2c(nc3c1CCCC3)CCCC2 [Hydrochloride of the inventive compound, hydrochloride of 1,2,3,4,5,6,7,8-octohydro-9-phenylacetamidoacridine]
[3]; [8]
  Dosages of ouabain CA: 280.3 ± 41.5 µg/kg
  Dosages of ouabain VF: 235.3 ± 36.3 µg/kg
  Dosages of ouabain VP: 171.8 ± 38.4 µg/kg
  Dosages of ouabain VT: 189.7 ± 30.3 µg/kg
[3]; [9]
  Dosages of ouabain CA: 370.4 ± 66.7 µg/kg
  Dosages of ouabain VF: 298.7 ± 49.1 µg/kg
  Dosages of ouabain VP: 189.5 ± 25.4 µg/kg
  Dosages of ouabain VT: 230.4 ± 35.3 µg/kg
[3]
  Antagonistic action against the arrhythmia induced by ouabain in guinea pigs: significant antagonistic actions
[4]; [8]
  Occurrence time CA: 907.2 ± 250.6 s
  Occurrence time VF: 640.4 ± 217.3 s
  Occurrence time VP: 17.3 ± 7.8 s
  Occurrence time VT: 84.4 ± 19.0 s
[4]; [9]
  Occurrence time CA: 911.2 ± 186.4 s
  Occurrence time VF: 660.2 ± 204.7 s
  Occurrence time VP: 22.6 ± 6.1 s
  Occurrence time VT: 98.6 ± 21.3 s
[4]
  Antagonistic action against the arrhythmia induced by aconitine in rats: significant antagonistic actions

## O=C(Cc1ccccc1)Nc1c2c(nc3c1CCCC3)CCCC2 (hydrate or solvate) [Inventive compound, 1,2,3,4,5,6,7,8-octohydro-9-phenylacetamidoacridine]
other
  melting point: 234 to 236 °C

## CC(C)NCC(O)COc1cccc2ccccc12 (stereo not shown) [Propranolol, reference compound]
[3]; 10 mg/kg intragastric
  Dosages of ouabain CA: 390.6 ± 64.4 µg/kg
  Dosages of ouabain VF: 323.2 ± 71.4 µg/kg
  Dosages of ouabain VP: 201.3 ± 55.6 µg/kg
  Dosages of ouabain VT: 240.7 ± 48.78 µg/kg
[4]; 10 mg/kg intragastric
  Occurrence time CA: 913.7 ± 208.6 s
  Occurrence time VF: 705.6 ± 233.2 s
  Occurrence time VP: 23.6 ± 6.9 s
  Occurrence time VT: 101.6 ± 32.5 s

## Nc1c2c(nc3c1CCCC3)CCCC2 [9-amino-1,2,3,4,5,6,7,8-octohydroacridine]
cholinesterase
  Inhibition activity for cholinesterase: proved to have an inhibition activity for cholinesterase
